Data reported in publication PMC6001580, “Synthesis and molecular modelling studies of pyrimidinones and pyrrolo[3,4-d]-pyrimidinodiones as new antiplasmodial compounds” (Memórias do Instituto Oswaldo Cruz, 2018).
Values joined by “and” are separate entries in the source; they are usually repeats but may differ in a detail not shown here. Equal values may be shown once. Read-outs that look alike come from different tables or passages of the source.

Experiments:
[1] = system: BGM cells; assay: Cytotoxicity evaluation on mammalian cells (MTT); assay type: cell-based; conditions: 24 h, mean of three experiments
Description: Cytotoxicity evaluation on mammalian cells - BGM cells (originally acquired from ATCC (American Type Culture Collection), Manassas, VA, USA by the Federal University of Minas Gerais, Brazil, and donated by Dr Antoniana Krettli - Federal University of Minas Gerais) were cultured in 75 cm^2 sterile ﬂasks containing RPMI 1640 medium supplemented with 10% foetal bovine serum (FBS) at a concentration of 5 x 10^3 cells per millilitre in a 5% CO2 atmosphere at 37 °C. Cells were added with the test compounds in serial dilution. When the cell monolayer was confluent, it was trypsinised, washed with a culture medium distributed in a flat-bottomed 96-well plate (1 × 10^5 cells/mL) and incubated for 24 h at 37 °C to ensure cell adherence. Then, the drugs were added in serial dilution (1000-15 µM) and incubated for 24 h at 37 °C. Subsequently, the MTT salt, in a concentration of 3 mg/mL, was added after 3 h; then, the supernatant was removed, and the dye present on the bottom of the plate wells was dissolved in DMSO in a volume of 100 µL/well DMSO. The microplates were then read in an Espectramax 190 (Molecular Devices, USA) spectrophotometer, using the 570 nm filter. The determination of MDL50 was performed using a dose response curves nonlinear regression function ([Denizot and Lang 1986]).

[2] = system: chloroquine-resistant Plasmodium falciparum W2 strain; assay: Antiplasmodial in vitro assay (HRPII sandwich ELISA, 72 h); assay type: cell-based; conditions: for IC50: Plasmodium falciparum, W2, 72 h; for SI (selectivity index): SI = MDL50 / IC50 (BGM cells vs P. falciparum W2)
Excerpt: Antiplasmodial in vitro assay - The cultivation of P. falciparum W2 strain (originating from Indochina and cultivated in the Malaria Research Laboratory, Oswaldo Cruz Foundation-Fiocruz), which is chloroquine-resistant, was made according to the protocol of [Trager and Jensen (1976)], using human erythrocytes (A^+) in an RPMI 1640 medium supplemented with human serum. Parasites were synchronised to obtain the young (ring) parasite forms ([Lambros and Vanderberg 1979]). Parasitaemia was adjusted to 0.05% and haematocrit to 1.5%. Subsequently, the cultures were placed in microplates with the drugs, previously diluted in dimethyl sulphoxide and medium (DMSO 0.02% v/v), to be tested in serial dilutions (50 - 0.78 µM), as well as positive controls (chloroquine in serial dilutions; 10 - 0.07 µM) and negative (no drug) controls. All the microplates were incubated for 72 h. The microplates were then subjected to three cycles of freezing and thawing; the parasite growth was measured through the quantification of histidine-rich protein II (HRPII) using specific monoclonal antibodies (MPFM ICLLAB-55A®, USA and MPFG55P ICLLAB®, USA) in sandwich ELISA ([Noedl et al. 2002]). Absorbance was read at 450 nm in an Espectramax 190 spectrophotometer (Molecular Devices, USA), and the determination of the IC50 was made using dose-response curves.

[3] = system: P. berghei ANKA expressing green fluorescent protein (PbA-GFP); assay: In vivo activity evaluation against P. berghei (four-day test in mice); parameters: species or system Plasmodium berghei; conditions: Swiss mice, 30 mg/Kg orally for four consecutive days, vs untreated controls; for Reduction (%) of parasitaemia, Day eight: day eight after infection; for Reduction (%) of parasitaemia, Day five: day five after infection
Excerpt: In vivo activity evaluation against P. berghei - Swiss mice (Institute of Science and Technology in Biomodels - Fiocruz) were inoculated with 10^5 erythrocytes infected with P. berghei ANKA expressing green fluorescent protein (PbA-GFP, a donation from the malaria research and reference reagent resource centre -MR4, Manassas, VA; deposited by CJ Janse and AP Waters; MR4 number: MRA-865) intraperitoneally (day 1 of the experiment). Three hours after inoculation, the animals were randomly divided into five groups of mice. […] All of the test compounds and chloroquine were administered at a dose of 30 mg/kg, orally by gavage for four consecutive days. On days 5 and 8 after infection, flow cytometry was used to detect and count the number of parasitised red blood cells (RBC) that expressed GFP in relation to 10,000 RBCs, thus assessing the evolution of parasitaemia. […] The antimalarial activity was determined by the percentage reduction in parasitaemia of treated animals compared to untreated controls ([Peters et al. 1975]).

[4] = Hemolysis assay; assay type: cell-based; conditions: erythrocyte suspension (1% haematocrit), at 1000 μM, 37 °C, read-out: haemolysis
Description: Hemolysis assay - The haemolysis assay was performed according to the protocol described by [Wang et al. (2010)]. The compounds were dissolved in DMSO (0.5% v/v). Suspensions of erythrocytes (1% haematocrit) were incubated with the compounds at serial dilutions ranging from 15 to 1000 µM, at 37 °C for 30 min with a constant stirring. A 0.05% solution of saponin (Sigma-Aldrich) was used as a positive control of the test as it generated 100% haemolysis, and the suspension of erythrocytes in the medium was used as a negative control (blank). Following incubation, suspensions were centrifuged at 1000 g for 10 min, and the absorbance of the supernatants was measured at 540 nm using an Espectramax 190 spectrophotometer. The haemolysis rate of the samples was calculated as follows: % haemolysis = (sample absorbance - blank absorbance) x 100 / absorbance of the control with saponin.

[5] = P. falciparum W2 strain, 72 h, HRPII ELISA, mean of three experiments, read-out: IC50

IC50 [2, 5] | Compound | MDL50 [1] | SI (selectivity index) [2] | Reduction (%) of parasitaemia, Day eight [3] | Reduction (%) of parasitaemia, Day five [3] | hemolysis at 30 min, 1000 µM [4] | IC50 [2]
> 50 µM | O=C1NC2=C(C(=O)N(Cc3ccccc3)C2)C(c2ccccc2)N1 (centres unmarked) [3a] | > 100 µM | – | – | – | – | –
> 50 µM | COc1ccc(C2NC(=O)NC3=C2C(=O)N(Cc2ccccc2)C3)cc1 (centres unmarked) [3b] | > 100 µM | – | – | – | – | –
45 ± 0.79 µM | O=C1NC2=C(C(=O)N(Cc3ccccc3)C2)C(c2ccc(Cl)cc2)N1 (centres unmarked) [3d] | 86 ± 1.27 µM | 1.9 | – | – | – | –
> 50 µM | COc1ccccc1C1NC(=O)NC2=C1C(=O)N(Cc1ccccc1)C2 (centres unmarked) [3e] | > 100 µM | – | – | – | – | –
26 ± 1.15 µM | O=C1NC2=C(C(=O)N(Cc3ccccc3)C2)C(c2ccc(Br)cc2)N1 (centres unmarked) [3f] | > 100 µM | > 3.8 | – | – | – | –
> 50 µM | COc1cc(C2NC(=O)NC3=C2C(=O)N(Cc2ccccc2)C3)cc(OC)c1OC (centres unmarked) [3g] | > 100 µM | – | – | – | – | –
26.7 ± 0.56 µM | O=C1NC2=C(C(=O)N(Cc3ccccc3)C2)C(c2ccccc2Cl)N1 (centres unmarked) [3h] | > 100 µM | > 3.8 | – | – | – | –
> 50 µM | COc1ccc(C2NC(=O)NC3=C2C(=O)N(Cc2ccccc2)C3)c(OC)c1 (centres unmarked) [3i] | > 100 µM | – | – | – | – | –
> 50 µM | O=C1NC2=C(C(=O)N(Cc3ccccc3)C2)C(c2ccc([N+](=O)[O-])cc2)N1 (centres unmarked) [3j] | > 100 µM | – | – | – | – | –
> 50 µM | COc1ccc(C2NC(=O)NC3=C2C(=O)N(Cc2ccccc2)C3)cc1OC (centres unmarked) [3k] | > 100 µM | – | – | – | – | –

Continued, compound first:

Compound | IC50 [2, 5] | MDL50 [1] | SI (selectivity index) [2] | Reduction (%) of parasitaemia, Day eight [3] | Reduction (%) of parasitaemia, Day five [3] | hemolysis at 30 min, 1000 µM [4] | IC50 [2]
CCOC(=O)C1=C(CCl)NC(=O)NC1c1ccccc1 (centres unmarked) [1a] | 6.38 ± 0.8 µM | 24.6 ± 0.03 µM | 3.9 | – | – | – | –
CCOC(=O)C1=C(CCl)NC(=O)NC1c1ccc(OC)cc1 (centres unmarked) [1b] | – | 57 µM and 57 ± 0.65 µM | 19 | 33.8% | 0% | – | –
CCOC(=O)C1=C(CCl)NC(=O)NC1c1cccc(Br)c1 (centres unmarked) [1c] | 6.17 ± 0.02 µM | 21.7 ± 1.24 µM | 3.5 | – | – | – | –
CCOC(=O)C1=C(CCl)NC(=O)NC1c1ccc(Cl)cc1 (centres unmarked) [1d] | 1.96 ± 0.21 µM | 2.5 ± 0.93 µM | 1.3 | – | – | 3.6% | –
CCOC(=O)C1=C(CCl)NC(=O)NC1c1ccccc1OC (centres unmarked) [1e] | – | 23.8 ± 0.6 µM | 1.95 | – | – | – | –
CCOC(=O)C1=C(CCl)NC(=O)NC1c1ccc(Br)cc1 (centres unmarked) [1f] | 1.76 ± 0.27 µM | 22 µM and 22 ± 0.56 µM | 12.5 | 60.9% | 9.1% | 0.95% | –
CCOC(=O)C1=C(CCl)NC(=O)NC1c1cc(OC)c(OC)c(OC)c1 (centres unmarked) [1g] | 24.1 ± 1.2 µM | 21.7 ± 1.15 µM | 0.9 | – | – | – | –
CCOC(=O)C1=C(CCl)NC(=O)NC1c1ccccc1Cl (centres unmarked) [1h] | 3.12 ± 0.06 µM | 77 µM and 77 ± 0.87 µM | 24.6 | 55.2% | 0% | – | –
CCOC(=O)C1=C(CCl)NC(=O)NC1c1ccc(OC)cc1OC (centres unmarked) [1i] | 2.98 ± 0.18 µM | 9.7 ± 0.46 µM | 3.3 | – | – | – | –
CCOC(=O)C1=C(CCl)NC(=O)NC1c1ccc([N+](=O)[O-])cc1 (centres unmarked) [1j] | 6 ± 0.8 µM | 26.2 ± 1.1 µM | 4.4 | – | – | – | –
CCOC(=O)C1=C(CCl)NC(=O)NC1c1ccc(OC)c(OC)c1 (centres unmarked) [1k] | 3 ± 0.25 µM | 24.5 ± 0.09 µM | 8.2 | – | – | – | –
CCOC(=O)C1=C(CCl)NC(=O)NC1c1ccc(O)c(OC)c1 (centres unmarked) [1l] | 3 µM | – | – | – | – | – | –
O=C1NC2=C(C(=O)N(CCc3ccccc3)C2)C(c2ccccc2)N1 (centres unmarked) [2a] | > 50 µM | > 100 µM | – | – | – | – | –
COc1ccc(C2NC(=O)NC3=C2C(=O)N(CCc2ccccc2)C3)cc1 (centres unmarked) [2b] | 26.4 ± 0.26 µM | 24.6 ± 1.23 µM | 0.93 | – | – | 21.7% | –
O=C1NC2=C(C(=O)N(CCc3ccccc3)C2)C(c2cccc(Br)c2)N1 (centres unmarked) [2c] | > 50 µM | 6.9 ± 0.97 µM | – | – | – | 12.3% | –
COc1ccccc1C1NC(=O)NC2=C1C(=O)N(CCc1ccccc1)C2 (centres unmarked) [2e] | 22 ± 0.08 µM | 56 ± 1.83 µM | 2.5 | – | – | – | –
O=C1NC2=C(C(=O)N(CCc3ccccc3)C2)C(c2ccc(Br)cc2)N1 (centres unmarked) [2f] | > 50 µM | 18.6 ± 1.21 µM | – | – | – | 22.6% | –
COc1cc(C2NC(=O)NC3=C2C(=O)N(CCc2ccccc2)C3)cc(OC)c1OC (centres unmarked) [2g] | > 50 µM | 6.2 ± 0.73 µM | < 0.1 | – | – | – | –
O=C1NC2=C(C(=O)N(CCc3ccccc3)C2)C(c2ccccc2Cl)N1 (centres unmarked) [2h] | > 50 µM | > 100 µM | – | – | – | – | –
O=C1NC2=C(C(=O)N(CCc3ccccc3)C2)C(c2ccc([N+](=O)[O-])cc2)N1 (centres unmarked) [2j] | 25.6 ± 0.09 µM | 8.9 ± 0.9 µM | 0.4 | – | – | – | –
CCN(CC)CCCC(C)Nc1ccnc2cc(Cl)ccc12 (centres unmarked) [Chloroquine, reference compound] | – | – | – | 100% | 97.2% | – | 0.55 ± 0.09 µM
